PMC12828229, “Aspergillus fumigatus PolX1 is an early ancestor of vertebrate terminal deoxynucleotidyl transferases” (Nucleic Acids Research, 2026)

Biological target: T1, AfPolX1 (Aspergillus fumigatus, UniProt Q4X1T5)
T1 construct: gene AFUA_2G08840; catalytic core (8 kDa, fingers, palm, thumb), residues 297-704 in methods, 298-704 in results; codon-optimised in pET28a(+), E. coli Rosetta 2 (DE3); N-terminal His6 tag cut off with TEV protease
T1 sequence (Q4X1T5 297-704): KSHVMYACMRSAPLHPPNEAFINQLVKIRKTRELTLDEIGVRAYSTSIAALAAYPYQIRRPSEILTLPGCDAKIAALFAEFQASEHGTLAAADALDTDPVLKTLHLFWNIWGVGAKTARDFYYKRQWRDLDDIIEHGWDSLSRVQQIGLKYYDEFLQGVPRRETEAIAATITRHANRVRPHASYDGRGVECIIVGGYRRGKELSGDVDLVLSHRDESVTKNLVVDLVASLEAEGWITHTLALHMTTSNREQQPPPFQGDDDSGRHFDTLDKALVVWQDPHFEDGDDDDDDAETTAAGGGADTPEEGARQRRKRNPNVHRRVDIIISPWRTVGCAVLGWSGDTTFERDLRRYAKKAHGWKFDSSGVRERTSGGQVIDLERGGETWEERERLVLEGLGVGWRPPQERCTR
Test: single-turnover gap-filling primer extension, denaturing gel
Assay type: biochemical
Conditions: 1-nt gapped 5'-phosphate DNA (D1) templating dT, 150 nM; 4 uM enzyme; 1 mM dATP; 10 mM Mg acetate; pH 7.5; 37 °C

Structure (SMILES): Nc1ncnc2c1ncn2[C@H]1C[C@H](O)[C@@H](COP(=O)(O)OP(=O)(O)OP(=O)(O)O)O1 [dATP]
- kobs: Correct nucleotide incorporation proceeded at comparable rates for all the substrates
